In patent US20220280644A1, “"TRPswitch" - A STEP FUNCTION CHEMO-OPTOGENETIC LIGAND” (UNIVERSITY OF UTAH RESEARCH FOUNDATION, priority 2019, published 2022):

Columns and labels:
[1] = test system: zebrafish Trpa1a (zTrpa1a); assay: Rescue experiment, Trpa1b−/− embryos expressing zTrpa1a in Rohon-beard neurons; type: in vivo; settings: 20 μM, motion within 5 s after 1 s WL3
Protocol: (§1) For Trpa1b ohnolog and paralog rescue experiments, Trpa1b^−/− embryos were injected with ngn1:zTrpa1b-2A-mCherry (partial plasmid sequence in SEQ ID NO:5), ngn1:zTrpa1a-2A-mCherry, ngn1:hTRPA1-2A-EGFP or ngn1:mTRPA1-2A-mCherry at the 1-cell stage for mosaic Rohon-beard neuron expression. Embryos were screened at 2 dpf for fluorescent expression in Rohon-beard neurons, incubated with 20 μM TRPswitch-B for 1 hr and decapitated posterior to the eyes right before experiments. NA 0.25 5× objective and 1 s WL3 light illumination was used.
(§2) To test the potential cross activity of TRPswitch-B on the zebrafish ohnolog Trpa1a and on mammalian orthologs, zebrafish Trpa1a, mouse TRPA1 or human TRPA1 were transiently re-expressed in the Rohon-beard neurons of mutant Trpa1b^−/− zebrafish and performed light-induced motion response experiments in the presence of TRPswitch-B. Rescue experiments were performed in Trpa1b^−/− zebrafish with transient mosaic re-expression of zebrafish Trpa1b (zTrpa1b), zebrafish Trpa1a (zTrpa1a), mouse TRPA1 (mTRPA1) or human TRPA1 (hTRAP1) in Rohon-beard neurons. Embryos were pre-treated with 20 μM TRPswitch-B and decapitated right before light stimulation to eliminate the light response mediated by the retina (Table 5). […]

Trpa1b = assay: Heartbeat interruption in larvae expressing Trpa1b in cardiomyocytes; type: in vivo, zebrafish; settings: 20 μM
Protocol: Heartbeat interruption experiments were performed in vivo on 2 dpf Tg(cm/c2:Trpa1b-2A-EGFP) larvae in a Trpa1b^−/− background. Larvae were pretreated with 20 μM of TRPswitch-A or TRPswitch-B in E3 at a final concentration of 1% DMSO for 1 h in the dark at 28.5° C. before experimental manipulation. Immediately prior to the onset of experiments, E3 solution was replaced with 0.2 mg/mL tricaine (Sigma, A5040) in E3 for anesthetizing the larvae. Violet light (352-402 nm) and green light (500-600 nm) were used for E to Z and Z to E isomerization, respectively. Violet and green light excitation were achieved using a band pass filter FF01-377/50 and an et500lp long pass barrier filter, respectively, together with a t600plxxr dichroic mirror and a 300-Watt xenon bulb light source (Sutter Instrument). Experiments were performed using a NA 0.6 40× air objective at room temperature. The zebrafish heart in the whole field of view was illuminated with 1 s violet light followed by various lengths of green light as indicated. Ventricle width measurement was performed using the ImageJ ‘measure’ function on the widest outer ventricle width every 100 ms.

human TRPA1 = target: T1, human TRPA1 (Homo sapiens, UniProt O75762); assay: Rescue experiment, Trpa1b−/− embryos expressing hTRPA1 in Rohon-beard neurons; type: in vivo, zebrafish; settings: 20 μM, motion within 5 s after 1 s WL3
T1 construct: 2A peptide (remnant stays on the channel) (C); EGFP (separated at the 2A site) (C, cleaved yes); expressed in transfected cells; host or cells: Rohon-Beard neurons of Trpa1b−/− zebrafish embryos, in vivo
Protocol: as §1, §2

[2] = Photostationary state (PSS) determination; type: physicochemical
Text: […] In the latter case, the pure Z isomer spectrum was estimated using methods described in previous publications.

zebrafish Trpa1b = assay: Whole cell current in CCD-18Co cells transfected with zebrafish Trpa1b; type: cell-based; settings: CCD-18Co transfected with zTrpa1b
Protocol: Immortalized HEK293T cells or human colonic fibroblast cells (CCD-18Co; ATCC) were used. HEK293T cells were plated on […] cover slips and transiently transfected with 10 μg of Trpa1b plasmid (pCMV-zTrpa1b-FLAG) (SEQ ID NO:3) and 5 μg of mNeonGreen cDNA (Allele Biotechnology), then grown in a 6 cm plate for 24-48 h. CCD-18Co were cultured in Eagle's minimal essential medium with 10% FBS, 1× penicillin and streptomycin. CCD-18Co cells were plated on 12 mm cover slips and transiently transfected with 5 μg of zTrpa1b plasmid (pCMV-zTrpa1b-FLAG) together with 5 μg of mNeonGreen cDNA (Allele Biotechnology), then grown in a […] plate for 48-72 h. After this time, the cover slips were transferred to a recording chamber containing an extracellular solution composed of 145 mM sodium gluconate, 4 mM KCl, 3 mM MgCl2, 10 mM D-glucose, 10 mM HEPES; pH 7.4 adjusted with NaOH. The internal solution contained 122 mM cesium methane sulfonate, 1.8 mM MgCl2, 9 mM EGTA, 14 mM creatine phosphate (sodium salt), 4 mM Mg-ATP, 0.3 mM Na-GTP, 10 mM HEPES, pH 7.2 adjusted with CsOH. […] Whole cell currents were measured on an Axopatch 200B amplifier (Molecular De-vices) under the control of pClamp software. […] Basal Trpa1b whole cell currents were measured with a ramp protocol (˜100 to +100 mV, at a holding potential of 0 mV). […] The p values were calculated using a two-tailed, paired Student's t-test.

[3] = UV-Vis absorbance, E/Z isomerization with violet and green light; type: physicochemical; settings: UV-Vis absorbance in DMSO
Protocol: Compounds were dissolved in DMSO at 250 μM and 260 μM for TRPswitch-A and TRPswitch-B, respectively and UV-Vis absorbance was measured using a NanoDrop 1000 (Thermo Scientific).

mouse TRPA1 (mTRPA1) = target: T2, mouse TRPA1 (mTRPA1) (Mus musculus, UniProt Q8BLA8); assay: Rescue experiment, Trpa1b−/− embryos expressing mTRPA1 in Rohon-beard neurons; type: in vivo, zebrafish; settings: 20 μM, motion within 5 s after 1 s WL3
T2 construct: 2A peptide (remnant stays on the channel) (C); mCherry (separated at the 2A site) (C, cleaved yes); expressed in transfected cells; host or cells: Rohon-Beard neurons of Trpa1b−/− zebrafish embryos, in vivo
Protocol: as §1, §2

[4] = UV-Vis spectroscopy in 30% water:DMSO, extrapolated pure Z spectrum, listed as TRPswitch-B

T1 sequence (O75762 whole entry): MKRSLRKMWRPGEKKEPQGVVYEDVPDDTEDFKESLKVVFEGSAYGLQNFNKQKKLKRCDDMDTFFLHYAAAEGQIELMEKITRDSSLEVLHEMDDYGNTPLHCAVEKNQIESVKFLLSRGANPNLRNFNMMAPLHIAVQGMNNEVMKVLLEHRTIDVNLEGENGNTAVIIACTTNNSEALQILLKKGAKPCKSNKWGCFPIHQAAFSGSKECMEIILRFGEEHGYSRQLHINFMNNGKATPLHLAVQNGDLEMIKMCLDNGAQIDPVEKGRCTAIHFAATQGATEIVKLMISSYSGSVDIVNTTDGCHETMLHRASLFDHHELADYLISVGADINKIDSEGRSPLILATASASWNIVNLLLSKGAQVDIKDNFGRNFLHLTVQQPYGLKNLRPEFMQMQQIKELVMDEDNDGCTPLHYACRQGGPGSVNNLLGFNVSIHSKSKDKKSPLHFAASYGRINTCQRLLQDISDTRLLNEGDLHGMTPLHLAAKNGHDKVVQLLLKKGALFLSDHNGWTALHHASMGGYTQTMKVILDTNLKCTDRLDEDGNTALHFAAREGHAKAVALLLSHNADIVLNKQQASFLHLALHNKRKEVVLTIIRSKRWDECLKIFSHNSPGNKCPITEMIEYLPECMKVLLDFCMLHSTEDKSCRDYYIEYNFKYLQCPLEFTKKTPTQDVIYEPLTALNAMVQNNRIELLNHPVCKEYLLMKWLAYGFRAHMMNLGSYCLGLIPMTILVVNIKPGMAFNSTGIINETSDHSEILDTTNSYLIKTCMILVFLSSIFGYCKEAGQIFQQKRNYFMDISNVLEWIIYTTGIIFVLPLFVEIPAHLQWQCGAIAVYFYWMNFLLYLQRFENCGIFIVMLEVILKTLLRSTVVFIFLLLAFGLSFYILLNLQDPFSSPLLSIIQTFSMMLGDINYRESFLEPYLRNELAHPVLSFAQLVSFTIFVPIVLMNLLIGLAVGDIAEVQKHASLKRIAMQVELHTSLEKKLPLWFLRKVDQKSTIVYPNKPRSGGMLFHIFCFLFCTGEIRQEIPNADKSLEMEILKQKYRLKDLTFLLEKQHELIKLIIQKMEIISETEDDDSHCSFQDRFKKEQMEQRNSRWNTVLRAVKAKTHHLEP
T2 sequence (Q8BLA8 whole entry): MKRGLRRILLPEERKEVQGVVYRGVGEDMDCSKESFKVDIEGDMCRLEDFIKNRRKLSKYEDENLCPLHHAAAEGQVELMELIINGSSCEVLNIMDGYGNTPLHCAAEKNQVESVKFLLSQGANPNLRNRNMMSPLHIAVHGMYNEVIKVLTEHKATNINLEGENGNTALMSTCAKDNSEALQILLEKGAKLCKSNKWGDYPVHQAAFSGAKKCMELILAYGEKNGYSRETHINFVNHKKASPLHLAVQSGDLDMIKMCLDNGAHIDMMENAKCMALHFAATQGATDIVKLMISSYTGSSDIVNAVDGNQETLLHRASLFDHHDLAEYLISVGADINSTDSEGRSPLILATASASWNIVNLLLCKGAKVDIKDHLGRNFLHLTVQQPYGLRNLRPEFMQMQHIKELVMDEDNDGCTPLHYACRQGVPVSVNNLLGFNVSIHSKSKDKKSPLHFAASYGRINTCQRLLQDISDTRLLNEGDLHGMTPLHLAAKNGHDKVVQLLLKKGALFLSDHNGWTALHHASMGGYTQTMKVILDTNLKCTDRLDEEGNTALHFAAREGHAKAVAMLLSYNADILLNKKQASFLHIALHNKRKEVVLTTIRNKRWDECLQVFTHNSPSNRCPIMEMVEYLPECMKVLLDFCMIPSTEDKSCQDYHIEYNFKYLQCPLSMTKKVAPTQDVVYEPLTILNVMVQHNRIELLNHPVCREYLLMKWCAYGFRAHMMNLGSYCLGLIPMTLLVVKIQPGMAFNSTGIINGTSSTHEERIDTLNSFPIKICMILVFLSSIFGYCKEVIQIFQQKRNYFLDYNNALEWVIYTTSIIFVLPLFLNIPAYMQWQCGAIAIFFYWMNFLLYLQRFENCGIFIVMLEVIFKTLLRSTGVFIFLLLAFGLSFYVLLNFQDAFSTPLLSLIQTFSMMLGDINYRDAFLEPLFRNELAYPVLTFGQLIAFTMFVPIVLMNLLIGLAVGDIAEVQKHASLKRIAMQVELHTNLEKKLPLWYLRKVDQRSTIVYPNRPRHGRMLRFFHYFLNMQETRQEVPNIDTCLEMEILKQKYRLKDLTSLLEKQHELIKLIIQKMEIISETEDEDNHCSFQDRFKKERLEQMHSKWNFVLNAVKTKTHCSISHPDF

Compound: Cc1nn(C)c(C)c1/N=N/c1ccc(NC(=O)c2cccs2)cc1NC(=O)c1cccs1 [Compound 9, (E)-N,N′-(4-((1,3,5-trimethyl-1H-pyrazol-4-yl)diazenyl)-1,3-phenylene)bis(thiophene-2-carboxamide)]
- % response [1]: 0%
- ventricle heartbeat after 1 s violet light (Trpa1b; 1 h pre-incubation): could be stopped
- ventricular rhythm after 1 s green light (Trpa1b; after violet light): re-stored
- % response (human TRPA1): 0%
- 365 nm PSS (E-Z) ([2]; 1H NMR in DMSO-d6): 92% Z
- 420 nm PSS (E-Z) ([2]; 1H NMR in DMSO-d6): 55% Z
- 495 nm PSS (Z-E) ([2]; 1H NMR in DMSO-d6): 86% E
- Estimated 365 nm PSS (E-Z) [2, 4]: 92% Z
- Estimated 495 nm PSS (Z-E) [2, 4]: 100% E
- photocurrent on green light (zebrafish Trpa1b): green light-induced decrease in photocurrent
- photocurrent on violet light (zebrafish Trpa1b): violet light-induced photocurrent
- E/Z photoswitching with violet and green light [3]: quantitative photoswitching in both directions
- E/Z photoswitching with violet and green light ([3]; listed as TRPswitch-B): complete return
- % response (mouse TRPA1 (mTRPA1)): 0%
